Experimental data reported in US12661415B2, “Isoindolinone compounds and imaging agents for imaging Huntingtin protein” (CHDI Foundation, Inc., priority 2021, dated 2026).

Experiments:
[1] = Unbound brain fraction (fu,brain) in mouse brain by equilibrium dialysis; type: in vitro ADME; details: 20% mouse brain homogenate, 5 μM, equilibrium dialysis 6 h at 37° C., average of triplicate
Protocol: Compounds were tested for unbounded brain fraction (or free fraction in brain, fu,brain). It is an accepted standard in the CNS PET imaging field that compounds with low unbound fraction in brain (<5%) likely have high non-specific binding background that is undesirable for the detection of target binding. As a result, fu,brain is an important property in the design of PET ligands for brain imaging [see Zhang et al., Design and selection parameters to accelerate the discovery of novel central nervous system positron emission tomography (PET) ligands and their application in the development of a novel phosphodiesterase 2A PET ligand. J Med Chem 2013, 56 (11), 4568-79; Liu et al., Imaging Mutant Huntingtin Aggregates: Development of a Potential PET Ligand. J Med Chem 2020, 63 (15), 8608-8633].
Determining fu,brain in Mouse Brain by Equilibrium Dialysis. Dialysis membranes (12-14 kDa) (HTDialysis, Connecticut) were soaked in phosphate buffer (10 mM potassium phosphate and 0.8% sodium chloride buffer, pH 7.4 at 37° C.) for a minimum of 1 h, at this time ethanol was added (final concentration of 20% v/v) and membranes continued to soak for 30 min Mouse brain tissue was diluted in phosphate buffer in a […] (w/v) and homogenised using a Precellys 24 (Stretton Scientific, UK) to achieve a final concentration of 20% brain homogenate.
Test compounds prepared as DMSO stocks at 0.5 mM are diluted into brain homogenate to achieve 5 μM final substrate concentration (1% DMSO) and a t=0 sample was prepared by sampling 50 μL of into 400 μL of quench solution (Acetonitrile containing 0.1% formic acid and sulfisoxazole/tolbutamide/imipramine/labetalol 200 nM). Samples were matrix matched with the addition of 50 μL of assay buffer. The HTDialysis Teflon blocks (HTDialysis, Connecticut) were assembled with pre-soaked membrane between each receiver and donor well and clamped in the stainless steel pressure plate (HTDialysis, Connecticut). The lower compartment (acceptor side) was dosed with 120 μL of buffer and the upper compartment (donor side) was dosed with 120 μL of compound in homogenate. All test compounds and controls were completed in triplicate. The HT dialysis plate was sealed and incubated for 6 h at 37° C. shaking at 250 rpm.
Following the incubation, 50 μL of sample was removed from all donor and acceptor wells and transferred into a quench plate containing 400 μL of quench solution. All samples were matrix matched with 50 μL of the alternate blank matrix. Analytical samples were diluted 1:1 with water using the Janus Robot and analysed by LC-MS/MS.
Peak areas of donor and acceptor compartments were compared to determine percent unbound (% fu) and the average of triplicate measurements was reported. Reference T0 sample was used to calculate sample recovery (%). Control compounds were compared with historic and literature values to ensure assay functionality.

[2] = target: T1, MBP-HTT(1-89)Q46-His(6×) (Exon1-Q46) protein aggregates (Homo sapiens, UniProt P42858, INS38QQQQQQQQQQQQQQQQQQQQQQQQQ); assay: Exon1-Q46 radioligand binding assay (RBA); details: aggregated Exon1-Q46 1 μM; 0.3 nM ligand [3H3-methyl]-5-((5-methoxypyridin-2-yl)methoxy)-2-(pyrazin-2-yl)benzo[d]oxazole; 60 minutes at 37° C.; read-out: Potency Range (IC50)
T1 construct: MBP-HTT(1-89)Q46-His(6×); His(6×) (C); made in house
Protocol: Exon1-Q46 Radioligand Binding Assay
For radioligand binding assays (RBA) MBP-HTT(1-89)Q46-His(6×) (“Exon1-Q46”) protein was generated based on a previous publication (Scherzinger et al. Cell, Vol. 90, 549-558, Aug. 8, 1997). For experiments 30 μM MBP-Exon1-Q46 was incubated with 150 μg/mL thrombin in assay buffer (150 mM NaCl, 50 mM Tris pH 8.0) and 2 mM CaCl2 for 16 hours at 37° C. Aggregated Exon1-Q46 was pelleted by centrifugation for 5 minutes at 13,000 rpm in a bench top centrifuge and re-dissolved in the same volume of assay buffer. Test compounds were prepared by titration in DMSO at 11 concentrations from 63 μM to 2 nM. For the RBA, Exon1-Q46 protein aggregates and test compounds were pre-incubated in assay buffer for 20 minutes at room temperature, in 100 μL/well in a 96-well plate (pp, round bottom). Then, ligand was added in 50 μL/well and incubated for 60 minutes at 37° C. Final assay concentrations were 1 μM to 30 pM test compound, 1 μM Exon1-Q46 protein (equivalent monomer concentration) and 0.3 nM ligand [^3H3-methyl]-5-((5-methoxypyridin-2-yl)methoxy)-2-(pyrazin-2-yl)benzo[d]oxazole. Samples were transferred onto GF/B filter plates and washed 2× with 200 μL PBS using a Filtermate Harvester. After drying filter plates for 1 hour at 55° C., the back of the plates were sealed with foil and 30 μL/well scintillation fluid (Packard MicroScint 40) added, incubated for 15 minutes in the dark and counted in a MicroBeta reader. For analysis, replicate data from independent assay plates were normalized towards 0% and 100% inhibition using control wells of vehicle (0% inhibition) and 1 μM unlabelled [^3H3-methyl]-5-((5-methoxypyridin-2-yl)methoxy)-2-(pyrazin-2-yl)benzo[d]oxazole (100% inhibition). IC50 values were determined with a sigmoidal inhibition model with four variables (top, bottom, slope, IC50) in a global fit using the normalized replicate data.
The results for various example compounds were as provided in the table below (+++<100 nM; ++100−500 nM; +>500 nM; ND: not determined): […]

T1 sequence (P42858 with tags, fused parts or gaps with the stated changes): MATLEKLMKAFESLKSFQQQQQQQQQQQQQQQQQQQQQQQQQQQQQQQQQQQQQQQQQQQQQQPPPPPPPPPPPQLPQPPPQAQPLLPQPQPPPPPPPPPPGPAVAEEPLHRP

SMILES	Mean Free Brain Fraction (%) [1]	IC50 [2]
COc1ccc(COc2ccc3c(c2)CN(c2ccc(=O)n(C)n2)C3)nc1 [Comparative Compound 1, reference compound]	1.3%	–
Cn1nc(N2Cc3cc(OCc4ccc(F)cn4)ccc3C2=O)ccc1=O [Compound 1-1, 5-((5-Fluoropyridin-2-yl)methoxy)-2-(1-methyl-6-oxo-1,6-dihydropyridazin-3-yl)isoindolin-1-one]	12.0%	< 100 nM
Cn1nc(N2Cc3cc(OCc4ccc(I)cn4)ccc3C2=O)ccc1=O [Compound 1-3, 5-[(5-Iodopyridin-2-yl)methoxy]-2-(1-methyl-6-oxo-1,6-dihydropyridazin-3-yl)-2,3-dihydro-1H-isoindol-1-one]	1.2%	< 100 nM
COc1ccc(COc2ccc3c(c2)CN(c2ccncc2)C3=O)nc1 [Compound 1-4, 5-[(5-Methoxypyridin-2-yl)methoxy]-2-(pyridin-4-yl)-2,3-dihydro-1H-isoindol-1-one]	3.0%	< 100 nM
Cn1nc(N2Cc3cc(O)ccc3C2=O)ccc1=O [Compound 1-5, 5-Hydroxy-2-(1-methyl-6-oxo-1,6-dihydropyridazin-3-yl)-2,3-dihydro-1H-isoindol-1-one]	–	< 100 nM
COc1ccc(COc2ccc3c(c2)CN(c2ccc(=O)n(C)n2)C3=O)nc1 [Compound 1-6, 5-[(5-Methoxypyridin-2-yl)methoxy]-2-(1-methyl-6-oxo-1,6-dihydropyridazin-3-yl)-2,3-dihydro-1H-isoindol-1-one]	9.8%	< 100 nM
COc1cnc(COc2ccc3c(c2)CN(c2ccc(=O)n(C)n2)C3=O)c(F)c1 [Compound 1-7, 5-[(3-Fluoro-5-methoxypyridin-2-yl)methoxy]-2-(1-methyl-6-oxo-1,6-dihydropyridazin-3-yl)-2,3-dihydro-1H-isoindol-1-one]	11.9%	< 100 nM
[2H]C([2H])(F)C([2H])([2H])Oc1ccc(COc2ccc3c(c2)CN(c2ccc(=O)n(C)n2)C3=O)nc1 [Compound 1-8, 5-({5-[2-Fluoro(1,1,2,2-^2H4)ethoxy]pyridin-2-yl}methoxy)-2-(1-methyl-6-oxo-1,6-dihydropyridazin-3-yl)-2,3-dihydro-1H-isoindol-1-one]	10.1%	< 100 nM
[2H]C([2H])(Oc1ccc(COc2ccc3c(c2)CN(c2ccc(=O)n(C)n2)C3=O)nc1)C([2H])([2H])OS(=O)(=O)c1ccc(C)cc1 [Compound 1-9, 2-{[6-({[2-(1-Methyl-6-oxo-1,6-dihydropyridazin-3-yl)-1-oxo-2,3-dihydro-1H-isoindol-5-yl]oxy}methyl)pyridin-3-yl]oxy}(1,1,2,2-^2H4)ethyl 4-methylbenzene-1-sulfonate]	–	< 100 nM
CC(F)Oc1ccc(COc2ccc3c(c2)CN(c2ccc(=O)n(C)n2)C3=O)nc1 (centres unmarked) [Compound 1-10, 5-{[5-(1-Fluoroethoxy)pyridin-2-yl]methoxy}-2-(1-methyl-6-oxo-1,6-dihydropyridazin-3-yl)-2,3-dihydro-1H-isoindol-1-one]	3.8%	< 100 nM
COc1cnc(COc2ccc3c(c2)CN(c2ccc(=O)n(C)n2)C3=O)cc1Cl [Compound 1-11, 5-[(4-Chloro-5-methoxypyridin-2-yl)methoxy]-2-(1-methyl-6-oxo-1,6-dihydropyridazin-3-yl)-2,3-dihydro-1H-isoindol-1-one]	1.6%	< 100 nM
COc1ccc(COc2ccc3c(c2)C(=O)N(c2ccc(=O)n(C)n2)C3)nc1 [Compound 1-12, 6-[(5-Methoxypyridin-2-yl)methoxy]-2-(1-methyl-6-oxo-1,6-dihydropyridazin-3-yl)-2,3-dihydro-1H-isoindol-1-one]	9.0%	< 100 nM
COc1ccc(COc2ccc3c(c2)CN(c2ccc(=O)n(C)n2)C3=O)nc1F [Compound 1-13, 5-[(6-Fluoro-5-methoxy-2-pyridyl)methoxy]-2-(1-methyl-6-oxo-pyridazin-3-yl)isoindolin-1-one]	7.0%	< 100 nM
COc1cnc(COc2ccc3c(c2)CN(c2ccc(=O)n(C)n2)C3=O)cc1F [Compound 1-14, 5-[(4-Fluoro-5-methoxypyridin-2-yl)methoxy]-2-(1-methyl-6-oxo-1,6-dihydropyridazin-3-yl)-2,3-dihydro-1H-isoindol-1-one]	12.0%	–
Cn1nc(N2Cc3cc(OCc4ccc(OCCF)cn4)ccc3C2=O)ccc1=O [Compound 2-1, 5-{[5-(2-Fluoroethoxy)pyridin-2-yl]methoxy}-2-(1-methyl-6-oxo-1,6-dihydro-pyridazin-3-yl)-2,3-dihydro-1H-isoindol-1-one]	14.3%	< 100 nM
Cn1nc(N2Cc3cc(OCc4ccc(OCF)cn4)ccc3C2=O)ccc1=O [Compound 2-2, 5-{[5-(Fluoromethoxy)pyridin-2-yl]methoxy}-2-(1-methyl-6-oxo-1,6-dihydropyridazin-3-yl)-2,3-dihydro-1H-isoindol-1-one]	12.7%	< 100 nM
Cn1nc(N2Cc3cc(OCc4ccc(O)cn4)ccc3C2=O)ccc1=O [Compound 4-1, 5-[(5-Hydroxypyridin-2-yl)methoxy]-2-(1-methyl-6-oxo-1,6-dihydropyridazin-3-yl)-2,3-dihydro-1H-isoindol-1-one]	–	< 100 nM
COc1ccc(COc2ccc3c(c2)CN(Cc2ccc(OC)nc2)C3=O)nc1 [Compound 7-1, 5-[(5-Methoxypyridin-2-yl)methoxy]-2-[(6-methoxypyridin-3-yl)methyl]-2,3-dihydro-1H-isoindol-1-one]	–	100 to 500 nM
[2H]C([2H])(F)C([2H])([2H])Oc1ccc(COc2ccc3c(c2)CN(c2ccc(=O)[nH]n2)C3=O)nc1 [Compound 9-2, 5-((5-(2-Fluoroethoxy-1,1,2,2-^2H4)pyridin-2-yl)methoxy)-2-(6-oxo-1,6-dihydropyridazin-3-yl)isoindolin-1-one]	–	< 100 nM
[2H]C([2H])(F)C([2H])([2H])Oc1ccc(COc2cnc3c(c2)CN(c2ccc(=O)n(C)n2)C3=O)nc1 [Compound 12-9, 6-[3-([5-[2-Fluoro(1,1,2,2-^2H4)ethoxy]pyridin-2-yl]methoxy)-7-oxo-5H,6H,7H-pyrrolo[3,4-b]pyridin-6-yl]-2-methyl-2,3-dihydropyridazin-3-one]	–	< 100 nM
